# Paper PMC7181660, “A novel specific PERK activator reduces toxicity and extends survival in Huntington's disease models” (Scientific Reports, 2020)
# Experiments:
# panel of 391 kinases [1] = biological target: panel of 391 kinases (Homo sapiens, UniProt Q9BYP7); assay: biochemical; type: biochemical; details: WNK3; ATP 1 µM; read-out: Control Compound IC50
# WT MEF cells = assay: Rescue from tunicamycin-induced apoptosis in WT MEFs; type: cell-based; details: WT MEFs treated with Tun; read-out: IC50 for inhibition of apoptosis
# Description: (§1) STHdh^Q111/111 cells (used before[13]) or PERK+/+ or PERK−/− MEFs (kindly provided by David Ron, Univ. Cambridge) were incubated with Tun (10 μg/ml) for 48 h, which results in ER stress-induced cell death. Cells under the same conditions were incubated for the same times, together with Tun, with increasing concentrations of the different PERK modulators (0–120 μM) and the percent of apoptotic cells was measured by FACS cell cycle progression using propidium iodide (PI), considering the fraction beneath G0/G1. The relative apoptosis rate was calculated to be able to compare between compounds and experiments, where for each concentration curve the percent of apoptotic cells was considered 100 at concentration 0 of the PERK modulator, with only Tun. The graphs show the average relative apoptosis rate of at least 3 independent experiments for each compound.
# (§2) Cells were washed with PBS and fixed with cold methanol. Before FACS analysis cells were washed with PBS, followed by addition of propidium iodide (PI) solution (10 μg/ml) and analysis by flow cytometry. Cells in sub-G0/G1 were counted as apoptotic/ dead.
# PERK−/− MEF cells = assay: Rescue from tunicamycin-induced apoptosis in PERK−/− MEFs; type: cell-based; details: Tun
# Description: as §1, §2
# STHdh^Q111/111 cells [2] = assay: Toxicity assay: rescue from tunicamycin (ER stress)-induced apoptosis, FACS with propidium iodide (sub-G0/G1); type: cell-based, murine; details: for rescue from ER stress-induced apoptosis: 0–100 μM, 48 h Tun exposure (Fig. 1C)
# Description: as §1, §2
# PERK-P = assay: PERK phosphorylation shift by immunoblot in MEF cells; type: cell-based; details: 3 hours, Thap 2 μg/ml
# PERK (EIF2AK3) = biological target: T1, PERK (EIF2AK3) (Homo sapiens, UniProt Q9NZJ5); assay: In vitro HotSpot kinase assay on isolated PERK; type: biochemical; details: HotSpot Kinase Assay
# T1 construct: GST; purchased Life technologies, Carlsbad, CA; host or cells: insect cells
# T1 sequence (Q9NZJ5 536-1116): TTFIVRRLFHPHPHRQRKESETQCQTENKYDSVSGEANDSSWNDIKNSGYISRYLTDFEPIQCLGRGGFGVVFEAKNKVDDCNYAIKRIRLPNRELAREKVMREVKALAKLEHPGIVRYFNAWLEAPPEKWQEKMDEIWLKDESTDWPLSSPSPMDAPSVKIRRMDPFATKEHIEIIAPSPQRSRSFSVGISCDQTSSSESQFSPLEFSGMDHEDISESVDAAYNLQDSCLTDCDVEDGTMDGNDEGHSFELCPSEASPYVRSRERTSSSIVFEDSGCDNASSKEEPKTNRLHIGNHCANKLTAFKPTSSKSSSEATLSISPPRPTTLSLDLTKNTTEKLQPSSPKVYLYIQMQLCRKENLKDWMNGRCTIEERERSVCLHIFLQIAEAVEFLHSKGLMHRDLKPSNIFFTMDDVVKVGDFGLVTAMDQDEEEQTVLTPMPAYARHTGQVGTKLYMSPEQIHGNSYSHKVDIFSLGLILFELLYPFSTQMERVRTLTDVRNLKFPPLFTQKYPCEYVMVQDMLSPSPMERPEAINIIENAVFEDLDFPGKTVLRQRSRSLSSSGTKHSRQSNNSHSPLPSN
# Description: In vitro kinase assays with purified components and full kinase panel analysis was done at Reaction Biology Corp. (Malvern, PA, USA) using the HotSpot Kinase Assay. Reactions were performed for 20 min at room temp. using ^33P-ATP (Specific activity 10 μCi/μl) with 1 μM total ATP, 20 μM substrate and kinases in the nanomolar range in 20 mM Hepes (pH 7.5), 10 mM MgCl2, 1 mM EGTA, 0.02% Brij35, 0.02 mg/ml BSA, 0.1 mM Na3VO4, 2 mM DTT, 1% DMSO and other required factors depending on the assayed kinase.
# panel of 391 kinases [3] = biological target: panel of 391 kinases (Homo sapiens, UniProt Q9BQI3); assay: biochemical; type: biochemical; details: kinase EIF2AK1; 10-dose IC50 mode; 1 µM ATP; read-out: Control Compound IC50
# panel of 391 kinases [4] = biological target: panel of 391 kinases (Homo sapiens, UniProt Q96QT4); assay: biochemical; type: biochemical; details: kinase TRPM7/CHAK1; 10-dose IC50 mode; 1 µM ATP; read-out: Control Compound IC50
# panel of 391 kinases [5] = biological target: panel of 391 kinases (Homo sapiens, UniProt P27361); assay: biochemical; type: biochemical; details: ERK1; ATP 1 µM; read-out: Control Compound IC50
# panel of 391 kinases [6] = biological target: panel of 391 kinases (Homo sapiens, UniProt Q9HC98); assay: biochemical; type: biochemical; details: NEK6; ATP 1 µM; read-out: Control Compound IC50
# panel of 391 kinases [7] = biological target: panel of 391 kinases (Homo sapiens, UniProt Q8TDX7); assay: biochemical; type: biochemical; details: NEK7; ATP 1 µM; read-out: Control Compound IC50
# panel of 391 kinases [8] = biological target: panel of 391 kinases (Homo sapiens, UniProt Q15120); assay: biochemical; type: biochemical; details: kinase PDK3/PDHK3; 10-dose IC50 mode; 1 µM ATP; read-out: Control Compound IC50
# panel of 391 kinases [9] = biological target: panel of 391 kinases (Homo sapiens, UniProt P68400); assay: biochemical; type: biochemical; details: CK2a; ATP 1 µM; read-out: Control Compound IC50
# panel of 391 kinases [10] = biological target: panel of 391 kinases (Homo sapiens, UniProt Q16654); assay: biochemical; type: biochemical; details: kinase PDK4/PDKH4; 10-dose IC50 mode; 1 µM ATP; read-out: Control Compound IC50
# panel of 391 kinases [11] = biological target: panel of 391 kinases (Homo sapiens, UniProt Q15119); assay: biochemical; type: biochemical; details: kinase PDK2/PDHK2; 10-dose IC50 mode; 1 µM ATP; read-out: Control Compound IC50
# panel of 391 kinases [12] = biological target: panel of 391 kinases (Homo sapiens, UniProt Q9NYL2); assay: biochemical; type: biochemical; details: ZAK/MLTK; ATP 1 µM; read-out: Control Compound IC50
# panel of 391 kinases [13] = biological target: T2, panel of 391 kinases (Homo sapiens, UniProt Q9NR20); assay: biochemical; type: biochemical; details: DYRK4; ATP 1 µM; read-out: Control Compound IC50
# T2 sequence (Q9NR20 1-520): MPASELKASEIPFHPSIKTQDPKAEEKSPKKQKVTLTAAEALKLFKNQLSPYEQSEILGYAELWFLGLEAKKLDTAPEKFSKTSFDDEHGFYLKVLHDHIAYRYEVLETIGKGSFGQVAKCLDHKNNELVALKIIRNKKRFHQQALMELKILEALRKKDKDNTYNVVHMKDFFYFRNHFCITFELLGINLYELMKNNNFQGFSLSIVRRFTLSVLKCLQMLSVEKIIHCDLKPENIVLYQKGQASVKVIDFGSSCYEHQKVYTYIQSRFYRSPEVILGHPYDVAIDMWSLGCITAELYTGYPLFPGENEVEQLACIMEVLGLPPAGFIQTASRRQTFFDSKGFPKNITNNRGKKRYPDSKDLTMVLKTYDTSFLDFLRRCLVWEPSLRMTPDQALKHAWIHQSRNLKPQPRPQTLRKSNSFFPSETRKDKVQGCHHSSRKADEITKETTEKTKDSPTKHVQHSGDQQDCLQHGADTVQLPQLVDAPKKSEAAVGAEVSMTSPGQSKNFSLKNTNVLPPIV
# panel of 391 kinases [14] = biological target: panel of 391 kinases (Homo sapiens, UniProt Q9Y572); assay: biochemical; type: biochemical; details: RIPK3; ATP 1 µM; read-out: Control Compound IC50
# panel of 391 kinases [15] = biological target: T3, panel of 391 kinases (Homo sapiens, UniProt P10398); assay: biochemical; type: biochemical; details: ARAF; ATP 1 µM; read-out: Control Compound IC50
# T3 sequence (P10398 1-606): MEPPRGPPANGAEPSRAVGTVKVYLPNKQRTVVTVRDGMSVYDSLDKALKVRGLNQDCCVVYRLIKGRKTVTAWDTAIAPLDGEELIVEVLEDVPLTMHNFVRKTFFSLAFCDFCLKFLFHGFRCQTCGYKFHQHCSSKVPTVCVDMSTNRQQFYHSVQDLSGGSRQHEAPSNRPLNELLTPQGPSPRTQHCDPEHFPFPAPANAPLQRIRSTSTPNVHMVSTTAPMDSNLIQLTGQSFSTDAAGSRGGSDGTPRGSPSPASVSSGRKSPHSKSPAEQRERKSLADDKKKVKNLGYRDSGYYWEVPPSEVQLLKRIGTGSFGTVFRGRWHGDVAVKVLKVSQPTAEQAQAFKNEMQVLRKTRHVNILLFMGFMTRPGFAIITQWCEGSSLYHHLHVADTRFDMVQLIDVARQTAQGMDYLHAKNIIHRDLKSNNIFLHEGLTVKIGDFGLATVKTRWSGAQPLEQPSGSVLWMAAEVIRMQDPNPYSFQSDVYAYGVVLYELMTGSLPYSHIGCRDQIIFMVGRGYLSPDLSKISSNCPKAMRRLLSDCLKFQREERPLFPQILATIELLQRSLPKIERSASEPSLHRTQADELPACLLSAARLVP
# panel of 391 kinases [16] = biological target: panel of 391 kinases (Homo sapiens, UniProt Q15118); assay: biochemical; type: biochemical; details: kinase PDK1/PDHK1; 10-dose IC50 mode; 1 µM ATP; read-out: Control Compound IC50
# panel of 391 kinases [17] = biological target: panel of 391 kinases (Homo sapiens, UniProt P37173); assay: biochemical; type: biochemical; details: TGFBR2; ATP 1 µM; read-out: Control Compound IC50
# STHdh^Q111/111 cells [18] = assay: Apoptosis of STHdh^Q111/111 cells with the NRF2 inhibitor ML385; type: cell-based, murine
# Description: as §1
# Suppl. Fig. S5. NRF2 activation but not involvement in cell protection by MK-28. A)
# Scheme of NRF2 activation by PERK. B) qPCR of HMOX1, a downstream target of NR F2.
# Medians +- interquartile range of 3 independent experiments . P values of STHdhQ7/7 MK 5µM […]
# presence of Tun and the indicated concentrations of MK-28, plus increasing concentrations of the NRF2 inhibitor ML385. Average of 3 independent experiments +-SD. D) Apoptosis of STHdhQ111/111 cells treated only with increasing concentrations of ML385. […]
smiles,measurement,setting,value
O=C1NC(=O)c2c1c(-c1ccccc1Cl)cc1[nH]c3ccc(O)cc3c21 [Wee-1 Inhibitor],IC50,panel of 391 kinases [1],1.91 µM
"CCN(CC)CCC(=O)N1N=C(c2c(-c3ccccc3)c3cc(Br)ccc3[nH]c2=O)CC1c1ccc(Br)cc1 (centres unmarked) [CCT020312, reference compound]",IC50,WT MEF cells,11.1 µM
same,protection from ER stress-induced cell death,PERK−/− MEF cells,failed to protect
same,IC50,"STHdh^Q111/111 cells [2]; STHdh^Q111/111 cells treated with Tun, read-out: IC50 for inhibition of apoptosis",32.4 µM
same,protection from apoptosis at lower concentrations,"STHdh^Q111/111 cells [2]; below 10 μM, Tun",failed to be protective
"C/C=C(/C)C(=O)O[C@H]1C(C)=C2[C@H]([C@@H]1OC(=O)CCCCCCC)[C@@](C)(OC(C)=O)C[C@H](OC(=O)CCC)[C@@]1(O)[C@H]2OC(=O)[C@@]1(C)O [Thap, thapsigargin, reference compound]",PERK migration shift (PERK-P),PERK-P,shift of PERK consistent with its phosphorylation
"Cn1cc(-c2ccc3c(c2)CCN3C(=O)Cc2cccc(C(F)(F)F)c2)c2c(N)ncnc21 [GSK606414, 7-methyl-5-(1-{[3-(trifluoromethyl)phenyl]acetyl}-2,3-dihydro-1H-indol-5-yl)-7H-p yrrolo[2,3-d]pyrimidin-4-amine]",effect on activity of isolated PERK,PERK (EIF2AK3),clear inhibitory effect
COc1cc(/C=N\N(C)c2nc(-c3ccccc3)cc(-c3ccccc3)n2)cc(OC)c1O [MK-30],rescue from ER stress-induced apoptosis,STHdh^Q111/111 cells [2],inactive
Cn1cc(-c2ccc3c(c2)CCN3C(=O)Cc2cccc(C(F)(F)F)c2)c2c(N)ncnc21 [GSK-2606414],IC50,panel of 391 kinases [3],0.166 µM
"COc1cc(/C=N\N(C)c2nc(-c3ccccc3)cc(-c3ccc(Br)cc3)n2)ccc1O [A4, reference compound]",effect on activity of isolated PERK,PERK (EIF2AK3),"activated PERK (EIF2AK3) in the nanomolar range, although to a small extent"
same,reduction of apoptosis,"STHdh^Q111/111 cells [2]; 5 μM, 48 h Tun exposure",no significant effect
CCCCCCCCCCCCCCCCn1cc[n+](Cc2ccccc2)c1C [NH125],IC50,panel of 391 kinases [4],11 µM
O=C(Nc1ccc2[nH]nc(-c3ccncc3)c2c1)[C@@H]1CCN(CC(=O)N2CCN(c3ccc(-c4ncccn4)cc3)CC2)C1 [SCH772984],IC50,panel of 391 kinases [5],0.0126 µM
COc1ccc(/C=N\N(C)c2nc(-c3ccccc3)cc(-c3ccccc3)n2)cc1O [MK-29],rescue from ER stress-induced apoptosis,STHdh^Q111/111 cells [2],inactive
O=C1Nc2ccc3ncsc3c2/C1=C/c1cnc[nH]1 [PKR Inhibitor],IC50,panel of 391 kinases [6],5.69 µM
same,IC50,panel of 391 kinases [7],14.8 µM
O=C1Nc2ccc(I)cc2/C1=C/c1cc(Br)c(O)c(Br)c1 [GW5074],IC50,panel of 391 kinases [8],1.89 µM
same,IC50,panel of 391 kinases [9],0.035 µM
same,IC50,panel of 391 kinases [10],1.68 µM
same,IC50,panel of 391 kinases [11],5.52 µM
same,IC50,panel of 391 kinases [12],1.34 µM
same,IC50,panel of 391 kinases [13],1.14 µM
same,IC50,panel of 391 kinases [14],1.14 µM
same,IC50,panel of 391 kinases [15],0.0293 µM
same,IC50,panel of 391 kinases [16],10.3 µM
c1ccc2c(-c3cnn4cc(-c5ccc(N6CCNCC6)cc5)cnc34)ccnc2c1 [LDN193189],IC50,panel of 391 kinases [17],0.0896 µM
Cc1ccccc1C(=O)N1CCc2cc(-c3nc(NC(=O)Cc4ccc5c(c4)OCO5)sc3C)ccc21 [ML385],reversal of the cytoprotective effect of MK-28,STHdh^Q111/111 cells [18]; Tun + MK-28 + increasing ML385,did not reverse to any significant extent
same,toxicity (apoptosis) of ML385,STHdh^Q111/111 cells [18]; increasing concentrations,caused some toxicity
COc1cc(/C=N\N(C)c2nc(-c3ccccc3)cc(-c3ccccc3)n2)cc(OC)c1 [MK26],rescue from ER stress-induced apoptosis,STHdh^Q111/111 cells [2],inactive
